Assay results taken from patent US12134620B2 (ARAXES PHARMA LLC, priority 2018, dated 2024).
Note: time not given here.

These compounds were tested against T1, KRAS G12C 1-169, his-tagged protein, GDP-loaded (Homo sapiens, UniProt P01116, G12C) (assay: Biochemical assay: covalent modification of KRAS G12C, analysed by mass spectrometry (RapidFire/TOF or Q-Exactive)). Conditions: Modification activity, modification percentage from MS peak intensities.
T1 construct: KRAS G12C 1-169, his-tagged protein, GDP-loaded; His tag
Assay type: binding
How it was run: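 GDP-loaded His-tagged KRAS G12C 1-169 (2 μM or 0.5 μM in 20 mM Hepes, 150 mM NaCl, 1 mM MgCl2) reacted with compound at 32 μM or 8 μM final (2% DMSO) for a set time, then quenched with formic acid. Percent covalent modification from deconvoluted intact-protein MS peak intensities (RapidFire/TOF or LC-Q Exactive).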
`C=CC(=O)N1CC2(CCN(c3ncnc(C#Cc4c(C)ccc5[nH]ncc45)c3C#N)C2)C1` [Compound I-232, 4-(2-acryloyl-2,6-diazaspiro[3.4]octan-6-yl)-6-((5-methyl-1H-indazol-4-yl)ethynyl)pyrimidine-5-carbonitrile] was tested, and the Binding % was “+ (+ indicates binding activity greater than 0% and up to 50%)”.
With `C=CC(=O)N1CC2(CCN(c3ncnc(-c4cc(O)cc5ccccc45)c3C#N)C2)C1` [Compound I-233, 4-(2-acryloyl-2,6-diazaspiro[3.4]octan-6-yl)-6-(3-hydroxynaphthalen-1-yl)pyrimidine-5-carbonitrile] the Binding % was “+ (+ indicates binding activity greater than 0% and up to 50%)”.
In the case of `C=CC(=O)N1CC2(CCN(c3ncnc(-c4cc5cn[nH]c5cc4C)c3C#N)C2)C1` [Compound I-234, 4-(2-acryloyl-2,6-diazaspiro[3.4]octan-6-yl)-6-(6-methyl-1H-indazol-5-yl)pyrimidine-5-carbonitrile], the Binding % is reported as “+ (+ indicates binding activity greater than 0% and up to 50%)”.
For `C=CC(=O)N1CC2(CCN(c3ncnc(-c4cc5[nH]ncc5cc4C)c3C#N)C2)C1` [Compound I-235, 4-(2-acryloyl-2,6-diazaspiro[3.4]octan-6-yl)-6-(5-methyl-1H-indazol-6-yl)pyrimidine-5-carbonitrile], the Binding % was “+ (+ indicates binding activity greater than 0% and up to 50%)”.
`C=CC(=O)N1CC2(CCN(c3ncnc(-c4c(C)ccc5[nH]ncc45)c3C#N)CC2)C1` [Compound I-236, 4-(2-acryloyl-2,7-diazaspiro[3.5]nonan-7-yl)-6-(5-methyl-1H-indazol-4-yl)pyrimidine-5-carbonitrile] was tested, and the Binding % was “+ (+ indicates binding activity greater than 0% and up to 50%)”.
`C=CC(=O)N1CC2(CCN(c3ncnc(-c4c(C)ccc5cn[nH]c45)c3C#N)CC2)C1` [Compound I-237, 4-(2-acryloyl-2,7-diazaspiro[3.5]ononan-7-yl)-6-(6-methyl-1H-indazol-7-yl)pyrimidine-5-carbonitrile] was tested, and the Binding % was “+ (+ indicates binding activity greater than 0% and up to 50%)”.
In the case of `C=CC(=O)N1CC2(CCN(c3ncnc(-c4c(C)ccc5[nH]nc(C6CC6)c45)c3C#N)C2)C1` [Compound I-238, 4-(2-acryloyl-2,6-diazaspiro[3.4]octan-6-yl)-6-(3-cyclopropyl-5-methyl-1H-indazol-4-yl)pyrimidine-5-carbonitrile], the Binding % is reported as “+ (+ indicates binding activity greater than 0% and up to 50%)”.
In the case of `C=CC(=O)N1CC2(CCN(c3ncnc(-c4c(C)ccc5[nH]ncc45)c3F)C2)C1` [Compound I-239, 1-(6-(5-fluoro-6-(5-methyl-1H-indazol-4-yl)pyrimidin-4-yl)-2,6-diazaspiro[3.4]octan-2-yl)prop-2-en-1-one], the Binding % is reported as “+ (+ indicates binding activity greater than 0% and up to 50%)”.
For `C=CC(=O)N1CC2(CCN(c3ncnc(-c4c(O)cccc4F)c3C#N)CC2)C1` [Compound I-240, 4-(2-acryloyl-2,7-diazaspiro[3.5]nonan-7-yl)-6-(2-fluoro-6-hydroxyphenyl)pyri-midine-5-carbonitrile], the Binding % was “+ (+ indicates binding activity greater than 0% and up to 50%)”.
With `C=CC(=O)N1CC2(CCN(c3ncnc(-c4c(C)ccc5[nH]ncc45)c3CC#N)C2)C1` [Compound I-241, 2-(4-(2-acryloyl-2,6-diazaspiro[3.4]octan-6-yl)-6-(5-methyl-1H-indazol-4-yl)pyrimidin-5-yl)acetonitrile] the Binding % was “+ (+ indicates binding activity greater than 0% and up to 50%)”.
`C=CC(=O)N1CC2(CCN(c3ncnc(-c4c(C)ccc5[nH]nc(N)c45)c3C#N)C2)C1` [Compound I-242, 4-(2-acryloyl-2,6-diazaspiro[3.4]octan-6-yl)-6-(3-amino-5-methyl-1H-indazol-4-yl)pyrimidine-5-carbonitrile] was tested, and the Binding % was “++ (++ indicates binding activity from 50 to 85%)”.
With `C=CC(=O)N1CC2(CCN(c3ncnc(-c4c(C)ccc5[nH]ncc45)c3OC)C2)C1` [Compound I-243, 1-(6-(5-methoxy-6-(5-methyl-1H-indazol-4-yl)pyrimidin-4-yl)-2,6-diazaspiro[3.4]octan-2-yl)prop-2-en-1-one] the Binding % was “+ (+ indicates binding activity greater than 0% and up to 50%)”.
`C=CC(=O)N1CC2(CCN(c3ncnc(Oc4ccccc4C(N)=O)c3C#N)C2)C1` [Compound I-244, 2-((6-(2-acryloyl-2,6-diazaspiro[3.4]octan-6-yl)-5-cyanopyrimidin-4-yl)oxy)benzamide] was tested, and the Binding % was “+ (+ indicates binding activity greater than 0% and up to 50%)”.
With `C=CC(=O)N1CC2(CCN(c3ncnc(-c4c(C)ccc5[nH]ncc45)c3O)C2)C1` [Compound I-245, 1-(6-(5-hydroxy-6-(5-methyl-1H-indazol-4-yl)pyrimidin-4-yl)-2,6-diazaspiro[3.4]octan-2-yl)prop-2-en-1-one] the Binding % was “+ (+ indicates binding activity greater than 0% and up to 50%)”.
`C=CC(=O)N1CC2(CCN(c3ncnc(N4CCCC4CO)c3C#N)C2)C1` (stereo not shown) [Compound I-246, 4-(2-acryloyl-2,6-diazaspiro[3.4]octan-6-yl)-6-(2-(hydroxymethyl)pyrro-lidin-1-yl)pyrimidine-5-carbonitrile] was tested, and the Binding % was “+ (+ indicates binding activity greater than 0% and up to 50%)”.
For `C=CC(=O)N1CC2(CCN(c3ncnc(N4CCC[C@@H]4C(N)=O)c3C#N)C2)C1` [Compound I-247, (R)-1-(6-(2-acryloyl-2,6-diazaspiro[3.4]octan-6-yl)-5-cyanopyrimidin-4-yl)pyrrolidine-2-carboxamide], the Binding % was “+ (+ indicates binding activity greater than 0% and up to 50%)”.
In the case of `C=CC(=O)N1CC2(CCN(c3ncnc(N4CCC[C@H]4C(N)=O)c3C#N)C2)C1` [Compound I-248, (S)-1-(6-(2-acryloyl-2,6-diazaspiro[3.4]octan-6-yl)-5-cyanopyrimidin-4-yl)pyrrolidine-2-carboxamide], the Binding % is reported as “+ (+ indicates binding activity greater than 0% and up to 50%)”.
With `C=CC(=O)N1CC2(CCN(c3ncnc(-c4c(C)ccc5[nH]ncc45)c3C3CC3)C2)C1` [Compound I-249, 1-(6-(5-cyclopropyl-6-(5-methyl-1H-indazol-4-yl)pyrimidin-4-yl)-2,6-diazaspiro[3.4]octan-2-yl)prop-2-en-1-one] the Binding % was “+ (+ indicates binding activity greater than 0% and up to 50%)”.
`C=CC(=O)N1CC2(CCN(c3ncnc(-c4c(C)ccc5[nH]cnc45)c3C#N)C2)C1` [Compound I-250, 4-(2-acryloyl-2,6-diazaspiro[3.4]octan-6-yl)-6-(5-methyl-1H-benzo[d]imidazol-4-yl)pyrimidine-5-carbonitrile] was tested, and the Binding % was “+ (+ indicates binding activity greater than 0% and up to 50%)”.
With `C=CC(=O)N1CC2(CCN(c3ncnc(-c4c(C)ccc5[nH]ncc45)c3CO)C2)C1` [Compound I-251, 1-(6-(5-(hydroxymethyl)-6-(5-methyl-1H-indazol-4-yl)pyrimidin-4-yl)-2,6-diazaspiro[3.4]octan-2-yl)prop-2-en-1-one] the Binding % was “+ (+ indicates binding activity greater than 0% and up to 50%)”.
For `C=CC(=O)N1CC2(CCN(c3ccnc(-c4c(C)ccc5[nH]ncc45)c3C#N)C2)C1` [Compound I-252, 4-(2-acryloyl-2,6-diazaspiro[3.4]octan-6-yl)-2-(5-methyl-1H-indazol-4-yl)nicotinonitrile], the Binding % was “+ (+ indicates binding activity greater than 0% and up to 50%)”.
For `C=CC(=O)N1CC2(CCN(c3ncnc(-c4c(C)ccc5[nH]ncc45)c3C(N)=O)C2)C1` [Compound I-253, 4-(2-acryloyl-2,6-diazaspiro[3.4]octan-6-yl)-6-(5-methyl-1H-indazol-4-yl)pyrimidine-5-carboxamide], the Binding % was “+ (+ indicates binding activity greater than 0% and up to 50%)”.
`C=CC(=O)N1CC2(CCN(c3ncnc(-c4c(C)ccc5[nH]ncc45)c3C(=O)N(C)C)C2)C1` [Compound I-254, 4-(2-acryloyl-2,6-diazaspiro[3.4]octan-6-yl)-N,N-dimethyl-6-(5-methyl-1H-indazol-4-yl)pyrimidine-5-carboxamide] was tested, and the Binding % was “+ (+ indicates binding activity greater than 0% and up to 50%)”.
For `C=CC(=O)N1CC2(CCN(c3ncnc(Oc4cccc(C(N)=O)c4)c3C#N)C2)C1` [Compound I-255, 3-((6-(2-acryloyl-2,6-diazaspiro[3.4]octan-6-yl)-5-cyanopyrimidin-4-yl)oxy)benzamide], the Binding % was “+ (+ indicates binding activity greater than 0% and up to 50%)”.
For `C=CC(=O)N1CC2(CCN(c3cncc(-c4c(C)ccc5[nH]ncc45)c3C#N)C2)C1` [Compound I-256, 3-(2-acryloyl-2,6-diazaspiro[3.4]octan-6-yl)-5-(5-methyl-1H-indazol-4-yl)isonicotinonitrile], the Binding % was “+++ (+++ indicates binding activity greater than 85%)”.
For `C=CC(=O)N1CC2(CCN(c3ncnc(-c4c(C)ccc5[nH]ncc45)c3C)C2)C1` [Compound I-257, 1-(6-(5-methyl-6-(5-methyl-1H-indazol-4-yl)pyrimidin-4-yl)-2,6-diazaspiro[3.4]octan-2-yl)prop-2-en-1-one], the Binding % was “+ (+ indicates binding activity greater than 0% and up to 50%)”.
In the case of `C=CC(=O)N1CC2(CCN(c3ncnc(-c4c(C)ccc5[nH]ncc45)c3CN(C)C)C2)C1` [Compound I-258, 1-(6-(5-((dimethylamino)meth-yl)-6-(5-methyl-1H-indazol-4-yl)pyrimidin-4-yl)-2,6-diazaspiro[3.4]octan-2-yl)prop-2-en-1-one], the Binding % is reported as “+ (+ indicates binding activity greater than 0% and up to 50%)”.
In the case of `C=CC(=O)N1CC2(CCN(c3ncnc(-c4c(C)ccc5[nH]ncc45)c3CC(F)(F)F)C2)C1` [Compound I-259, 1-(6-(6-(5-methyl-1H-indazol-4-yl)-5-(2,2,2-trifluoroethyl)pyrimi-din-4-yl)-2,6-diazaspiro[3.4]octan-2-yl)prop-2-en-1-one], the Binding % is reported as “+ (+ indicates binding activity greater than 0% and up to 50%)”.
